Target: T1, SmNAGAL (Smp_089290) (Schistosoma mansoni, UniProt A0A8F5XXF6)
T1 construct: gene NAGAL; native enzyme in soluble worm antigen preparation (SWAP) of adult worms, not purified; assigned by siRNA knockdown
Test: colorimetric hydrolysis at […] nm in worm extract, with siRNA knockdown
Format: biochemical
Settings: 0.15 M McIlvaine buffer pH 4.6, 37 °C, 60 min; SWAP of siLuc and siSmp_089290 worms

CC(=O)N[C@H]1[C@@H](Oc2ccc([N+](=O)[O-])cc2)O[C@H](CO)[C@H](O)[C@@H]1O [4-Nitrophenyl N-acetyl-α-D-galactosaminide]
colorimetric hydrolysis at 410 nm in worm extract, with siRNA knockdown: smnagal depletion in siRNA-treated worms significantly reduced α-NAGAL activity in SWAP

— publication PMC8791529, “Schistosoma mansoni α-N-acetylgalactosaminidase (SmNAGAL) regulates coordinated parasite movement and egg production” (PLoS Pathogens, 2022)
